For data set [1], the system named is AKT. Kind of data set: Immunoblot of AKT activation after PPF. The settings on record: T98G and GBM43 cells treated with PPF. It is filed as cell-based, human. As to the method: (§1) FIGS. 26A, 26B, and 26C depict that PPF sensitizes GBM cells to TMZ and radiotherapy. FIG. 26A—A clonogenic assay was used to assess T98G and GBM43 cells survival after TMZ and radiation treatment. Cells were pre-treated with 5 μM PPF for 24 hours, and then either treated with 250 μM TMZ for 24 hours or exposed to 2 Gy radiation. Graph depicts the surviving fraction in the treated cells compared to vehicle (VC) treated or non-treated (NT) cells, **p<0.01. FIG. 26B—T98G glioma cells were treated with vehicle, PPF (5 μM) TMZ (250 μM) and PPF in combination with TMZ. TMZ-induced apoptosis was assayed by immunoblot analysis of cell lysates with an antibody to cleaved PARP. Immunoblotting for α-Tubulin was included as a loading control. FIG. 26C—T98G, GBM10, and GBM43 cells were treated with PPF ([…], and then immunoblotted to assess the activation of AKT and NF-κB. Immunoblotting for β-Actin is included as a loading control.
(§2) Referring now to FIGS. 26A, 26B, and 26C: Knockdown of TROY expression with shRNA decreases TMZ resistance in GBM cells in vitro (See Reference 42). […] Following combination therapy, cells were trypsinized, counted, and plated in a 6-well culture dish at densities of 100, 250, and 500 cells per well in triplicate. Cells were incubated for 12 days then fixed, stained with 0.5% crystal violet solution, and counted manually by blinded observers. […]
(In western blotting, separated proteins are transferred to a membrane and probed.)

The conditions of data set [2]: clinical trials for Alzheimer's disease and vascular dementia; cited from earlier work.
The test system of data set [3] is T98G, GBM10, and GBM43 glioma cells. Kind of data set: Matrigel invasion assay. It is filed as cell-based, human. Particulars: 5 μM PPF, 24 hours, 10% FBS. As to the method: (§3) FIGS. 27A and 27B depict that PPF suppresses GBM cell invasion and Rac1 activation. FIG. 27A—T98G, GBM10, and GBM43 glioma cells were treated with 5 μM PPF and invasion was assayed over 24 hours utilizing a Matrigel® invasion assay, *p<0.05. FIG. 27B—T98G glioma cells were serum starved, pre-incubated with 5 μM PPF or vehicle for 1 hour, and then stimulated with 10% FBS for 2-10 mins. Cell lysates were harvested and equal concentrations of protein were assessed for Rac1 activation.
(§4) Referring now to FIGS. 27A and 27B: The inventors next examined whether PPF inhibited TROY dependent glioma cell invasion. […] Briefly, 5.0×10^5 cells glioma cells were seeded in 100-mm diameter culture dishes and incubated overnight at 37° C. Subsequently, cells were serum starved for 16 hours at 37° C. Cells were then harvested, re-suspended in growth factor reduced Matrigel® (Becton Dickinson) (1.0×10^5 cells/50 μL), added in triplicates to collagen-coated transwell chambers, and allowed to invade through Matrigel® in presence of 10% FBS and/or 5 μM PPF. After incubation for 24 hours at 37° C. non-invaded cells were scrapped off the upper side of the membrane and cells invaded to the other side of the membrane were fixed with 4% paraformaldehyde (PFA) (Affymetrix) and stained with DAPI (Invitrogen). Nuclei of invaded cells were counted in five high power fields (HPF) with a 20× objective.

In data set [4] the test system is CNS-1 rat model. The settings on record: systemic PPF treatment; cited from earlier work.
The subject of data set [5] is EGFR. Kind of data set: Western blot of EGFR expression after PPF treatment. Format: cell-based, human. The settings on record: T98G, GBM10, GBM43 cells, 5 μM PPF, 24 hours. As to the method:
FIG. 24A—a Western blot analysis of TROY expression in T98G cells. Cells were treated with PPF at indicated concentrations for 6 hrs, lysed, and cell lysates immunoblotted with anti-TROY antibody. Immunoblotting of α-Tubulin in cell lysates is included as a loading control. FIG. 24B—Western blot analysis of TROY expression in T98G, GBM43, and GBM10 cells. Cells were treated with PPF at indicated concentrations for 24 hrs, lysed, and cell lysates immunoblotted with anti-TROY and α-Tubulin antibodies. FIG. 24C—Western Blot analysis of TROY expression in GBM10 and GBM43 primary glioma cells. Cells were treated with 5 μM PPF, lysed at the indicated time-points, and the lysates immunoblotted with an anti-TROY antibody. Immunoblotting of β-Actin in cell lysates is included as a loading control. FIG. […]—Western Blot analysis of T98G, GBM10 and GBM43 glioma cells treated with 5 μM PPF for 24 hours. […]
Referring now to FIGS. 24A, 24B, 24C, and 24D: The inventors investigated if PPF could be utilized pharmacologically to decrease TROY expression in GBM cells. […] Cells were treated with increasing concentration of PPF, 1 to 20 μM lysed, and TROY expression assessed by immunobloting. […] Protein concentrations were determined using the BCA Assay (Pierce). […] Protein bands were detected using SuperSignal® Chemiluminescent Substrate (Pierce) with a UVP BioSpectrum 500 Imaging System.

Data set [6] relates to Rac1. Briefly: Rac1 activation assay after PPF. Format: cell-based, human. The settings on record: T98G cells, 5 μM PPF 1 hour, then 10% FBS. As to the method: as §3, §4
Data set [7] has as its system T98G and GBM43 cells. Briefly: Clonogenic survival assay, PPF with TMZ or radiation. Format: cell-based, human. As to the method:
as §1, §2

On to `CCCn1cnc2c1c(=O)n(CCCCC(C)=O)c(=O)n2C` [PPF, 3-methyl-1-(5-oxohexyl)-7-propyl-3,7-dihydro-1H-purine-2,6-dione], for which the AKT phosphorylation result in data set [1] is listed as “effectively decreased”. Also, the side effect profile result in data set [2] is on record as “minimal side effect profile”. The glioma cell invasion result in data set [3] is listed as “significantly inhibited glioma cell invasion”. Moreover, the tumor growth result in data set [4] is recorded as “decreased tumor growth”. Besides, in data set [5], the EGFR expression entry was “did not affect the expression”. Further, the Rac1 activation entry in data set [6] is “inhibited Rac1 activation”. The surviving fraction result in data set [7] (5 μM PPF 24 hours then 250 μM TMZ 24 hours, compared to TMZ alone, T98G and GBM43) is reported as “significantly decreased the surviving fraction”; in data set [7] (5 μM PPF 24 hours then 2Gy radiation, compared to 2Gy radiation alone), “significantly decreased the surviving fraction”.

(Values after patent US10624895B2, “Methods of sensitizing a patient with glioma to a therapeutic agent by administering small hairpin RNA targeting PDZ-RHOGEF” (THE TRANSLATIONAL GENOMICS RESEARCH INSTITUTE, priority 2016, dated 2020).)
